Values quoted from earlier work in patent US20160374912A1, “TOPICALLY APPLICABLE CHEMICAL PEEL COMPOSITION” (L'OREAL, priority 2015, published 2016).

Experiments:
[1] = not given; remark: listed apart in the source

Row | pKA | Log P [1] | SMILES
1 | 9.77-10.77 | 2.11 | CC(c1ccccc1)c1ccc(O)cc1O (stereo not shown) [Phenylethyl Resorcinol]
2 | 9.32-9.81 | 2.47 | Oc1cccc(O)c1 [Resorcinol]
